Consider 35 compounds from patent US5795756A, “Method and compounds for the inhibition of adenylyl cyclase” (priority 1996, dated 1998).

Like-named read-outs stand apart in the source and are kept apart here.

For test [1], the target named is adenylyl cyclase, Type I, purified recombinant (Bos taurus, UniProt P19754). The test can be described thus: Inhibition of purified recombinant Type I adenylyl cyclase (Table II). In kind it is biochemical. The settings on record: forskolin eluate.
For test [2], the target named is rat brain adenylyl cyclase. The test can be described thus: Inhibition of detergent-dispersed rat brain adenylyl cyclase (Table I). In kind it is biochemical. Particulars: for inhibition of adenylyl cyclase activity compared with adenosine: in words, relative to adenosine. Here is the method: Detergent-dispersed adenylyl cyclase from rat brain was prepared as previously described^58. Activities were determined in a reaction mixture containing 50 mM N-[2-hydroxyethyl]-piperazine-N'-[2-ethanesulfonic acid] (HEPES) or 50 mM triethanolamine.cndot.HCl, pH 7.5, 5 mM MnCl2, 100 μM 5'ATP, [α-^32 p]5'ATP (ca. 2 to 5×10^5 dpm), 0.1% (w/v) Lubrol-PX, 1 mM 3-isobutyl-1-methyl-xanthine, 1 mM dithiothreitol, 1 mg bovine serum albumin per ml, 2 mM creatine phosphate, 100 μg creatine kinase per ml, and 100 μM forskolin, in a reaction volume of 100 μl. Reactions were for 15 min at 30° C. and were terminated by the addition of 0.6 ml 120 mM zinc acetate containing 0.5 mM cAMP and 0.5 ml 144 mM sodium carbonate as described by Jakobs et al.^59.
The resulting ZnCO3 precipitate was sedimented by centrifugation in a desktop microfuge. The [^32 P] cAMP in the supernatant fraction was then purified free of residual substrate and other contaminants by sequential chromatography on Dowex-50 and Al2 O3, as described by Salomon et al.^60. [^32 P]cAMP was quantified by Cherenkov radiation in a liquid scintillation spectrometer.
The synthesized adenine derivatives, 1-5, 8, 11-13, 16, 19-21, 34 and 35 were each tested separately in vitro for their ability to inhibit adenylyl cyclase activity by administration of each compound to the above-describedadenylyl cyclase assay.

Test [3] addresses rat brain adenylyl cyclase. Particulars: Table I, footnote a: values from Johnson et al. 1989; read-out: IC50 for inhibition of rat brain adenylyl cyclase; cited from earlier work.
The test system of test [4] is intestinal epithelium. Particulars: cited from earlier work.
Test [5] has as its system adenylyl cyclases. Particulars: related art, cited from earlier work; for inhibition of adenylyl cyclases via P-site: in words; for IC50: read-out: IC50 for inhibition of adenylyl cyclases.
The target in test [6] is adenylyl cyclase, bovine brain, purified. Nature of the test: Inhibition of purified bovine brain adenylyl cyclase (Table II). The format is biochemical. The settings on record: forskolin eluates from forskolin affinity column.
In test [7] the test system is adenylyl cyclase. The test can be described thus: Inhibition of adenylyl cyclase in intact cells and tissues. The format is cell-based. Particulars: cell permeable variants.
[8] abbreviates: Table I, 5 mM MnCl2, 100 μM 5'ATP, 100 μM forskolin, pH 7.5, 15 min at 30° C., read-out: IC50 for inhibition of rat brain adenylyl cyclase.
[9] abbreviates: Table II, rat brain, detergent extract, values from Table I, read-out: IC50, rat brain detergent extract.
Setting [10] is: modified or replaced ribosyl moiety.

Sequence of adenylyl cyclase, Type I, purified recombinant (P19754 whole entry): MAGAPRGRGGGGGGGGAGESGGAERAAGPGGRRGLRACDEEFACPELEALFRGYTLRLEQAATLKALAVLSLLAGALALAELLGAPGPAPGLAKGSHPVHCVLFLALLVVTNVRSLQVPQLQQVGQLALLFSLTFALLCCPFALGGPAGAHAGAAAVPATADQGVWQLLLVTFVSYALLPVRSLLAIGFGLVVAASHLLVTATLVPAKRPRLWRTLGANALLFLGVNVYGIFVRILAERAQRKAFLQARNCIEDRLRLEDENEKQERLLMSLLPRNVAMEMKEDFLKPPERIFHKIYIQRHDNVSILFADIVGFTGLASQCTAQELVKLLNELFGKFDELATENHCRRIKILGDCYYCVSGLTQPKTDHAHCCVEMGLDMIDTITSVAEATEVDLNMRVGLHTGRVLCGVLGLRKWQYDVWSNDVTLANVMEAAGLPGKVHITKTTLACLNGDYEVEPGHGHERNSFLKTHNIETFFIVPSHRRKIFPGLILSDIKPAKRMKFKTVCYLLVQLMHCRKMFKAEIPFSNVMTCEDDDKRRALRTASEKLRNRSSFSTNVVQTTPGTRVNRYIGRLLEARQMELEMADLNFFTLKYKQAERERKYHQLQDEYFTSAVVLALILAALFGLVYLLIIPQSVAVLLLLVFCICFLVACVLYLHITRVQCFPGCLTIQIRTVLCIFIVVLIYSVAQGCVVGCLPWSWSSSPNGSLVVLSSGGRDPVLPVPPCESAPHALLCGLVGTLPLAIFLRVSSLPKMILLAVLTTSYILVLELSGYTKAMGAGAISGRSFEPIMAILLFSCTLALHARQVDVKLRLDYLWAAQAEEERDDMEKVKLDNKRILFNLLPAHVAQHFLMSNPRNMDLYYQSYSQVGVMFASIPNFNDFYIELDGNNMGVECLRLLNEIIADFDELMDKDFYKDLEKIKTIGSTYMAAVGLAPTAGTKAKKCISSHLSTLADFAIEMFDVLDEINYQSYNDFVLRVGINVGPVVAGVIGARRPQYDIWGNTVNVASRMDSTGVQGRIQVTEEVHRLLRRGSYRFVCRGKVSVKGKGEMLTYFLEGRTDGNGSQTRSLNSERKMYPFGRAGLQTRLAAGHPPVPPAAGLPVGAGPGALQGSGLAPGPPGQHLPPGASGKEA

Turning to `C[C@H]1O[C@@H](n2cnc3c(N)ncnc32)C[C@@H]1OP(=O)(O)O` [2'5'dd3'AMP], the IC50 in test [1] was 1990 nM; in test [2] (setting [8]), 460 nM; in test [2] (setting [9]) it was 460 nM.

As to `C[C@H]1O[C@@H](n2cnc3c(N)ncnc32)C[C@@H]1O` [2',5'-dideoxyadenosine], in test [3], the 50% inhibitory concentration (IC50) is 2700 nM. Also, the “counteracting effects of cholera intoxication” value in test [4] was “used to counteract the effects of cholera intoxication in intestinal epithelium”.

Regarding `Nc1ncnc2c1ncn2[C@H]1C[C@H](O)[C@@H](CO)O1` [2'-deoxyadenosine], the IC50 in test [3] was 15000 nM.

`Nc1ncnc2c1ncn2[C@H]1C[C@H](OP(=O)(O)O)[C@@H](CO)O1` [2'd3'AMP]: in test [3], the IC50 is 1200 nM.

`Nc1nc(F)nc2c1ncn2[C@H]1C[C@H](O)[C@@H](CO)O1` [2-fluoro-2'-deoxyadenosine]: the “inhibition of adenylyl cyclases via P-site” value in test [5] was “inhibitory”.

For `Nc1nc(F)nc2c1ncn2[C@@H]1O[C@H](CO)[C@@H](O)[C@H]1O` [2-fluoroadenosine], the “inhibition of adenylyl cyclases via P-site” value in test [5] is “inhibitory”.

For the compound `C[C@H]1O[C@@H](n2cnc3c(N)ncnc32)C[C@@H]1OC(=O)c1ccc(S(=O)(=O)F)cc1` [3'-(4-fluorosulfonylbenzoyl) -2', 5'-dideoxyadenosine], in test [5], the “inhibition of adenylyl cyclases via P-site” value is “inhibitory effectiveness”.

In the case of `C[C@H]1O[C@@H](n2cnc3c(N)ncnc32)C[C@@H]1OC(=O)CCC(=O)O` [3'-succinyl-2', 5'-dideoxyadenosine], in test [5], the “inhibition of adenylyl cyclases via P-site” value is “inhibitory effectiveness”.

Turning to `Nc1ncnc2c1ncn2[C@@H]1O[C@H](CO)[C@@H](OP(=O)(O)O)[C@H]1O` [3'AMP], the IC50 in test [2] (setting [8]) amounted to 8900 nM.

Consider `Nc1ncnc2c1ncn2C1CCCO1` (centres unmarked) [9-(tetrahydro-2-furyl)-adenine], for which the IC50 in test [5] (setting [10]) is ~10000 nM.

Regarding `CC1CCC(n2cnc3c(N)ncnc32)O1` (centres unmarked) [9-(tetrahydro-5-methyl-2-furyl)-adenine], in test [5] (setting [10]), the IC50 is ~8000 nM.

`Nc1ncnc2c1ncn2C1CCCC1` [9-cyclopentyl-adenine]: the IC50 in test [5] (setting [10]) is ~20000 nM.

Consider `Nc1ncnc2c1ncn2Cc1ccco1` [9-furfuryl-adenine], for which, in test [5] (unit printed kM), the IC50 was ~26000 nM.

Consider `Nc1ncnc2c1ncn2[C@@H]1O[C@H](CO)[C@@H](O)[C@@H]1O` [9-β-D-arabinofuranosyl-adenine], for which the IC50 in test [5] (setting [10]) is ~100000 nM.

For `Nc1ncnc2c1ncn2[C@@H]1O[C@H](CO)[C@H](O)[C@H]1O` [9-β-D-xylofuranosyl-adenine], the concentration for half-maximal inhibition (IC50) in test [5] (setting [10]) was ~25000 nM.

Take `C[C@H]1O[C@@H](n2cnc3c(N)ncnc32)C[C@@H]1OP(=O)(O)OCCN(C)S(=O)(=O)c1cccc2c(N(C)C)cccc12` [Compound 1, 2', 5'-dideoxyadenosine-3'-[2-([(5-dimethylamino-1-naphthalenesulfonamido) -(N-methyl)]-aminoethyl)-phosphate]]: the half-maximal inhibitory concentration (IC50) in test [2] (setting [8]) was 3000 nM. For the same compound, the “inhibition of adenylyl cyclase activity compared with adenosine” value (“inhibition … compared with adenosine” for short) in test [2] was “inhibited adenylyl cyclase activity at concentrations considerably lower than that for adenosine”.

With `CC(C)CCC[C@@H](C)[C@H]1CC[C@H]2[C@@H]3CC=C4C[C@@H](OP(=O)(O)O[C@H]5C[C@H](n6cnc7c(N)ncnc76)O[C@@H]5C)CC[C@]4(C)[C@H]3CC[C@]12C` [Compound 2, 2', 5'dideoxyadenosine-3'-[(3-cholesteryl)-phosphate]], the IC50 in test [2] (setting [8]) is > 300000 nM. Besides, the “inhibition … compared with adenosine” value in test [2] is reported as “less effective than adenosine in the inhibition of adenylyl cyclase activity”.

With `C[C@H]1O[C@@H](n2cnc3c(N)ncnc32)C[C@@H]1OP(=O)(O)OP(=O)(O)O` [Compound 3, 2', 5'-dideoxyadenosine-3'-diphosphate], the IC50 is 250 nM in test [1], 560 nM in test [6], 100 nM in test [2] (setting [8]) and 100 nM in test [2] (setting [9]).

In the case of `C[C@H]1O[C@@H](n2cnc3c(N)ncnc32)C[C@@H]1OP(=O)(O)OP(=O)(O)OP(=O)(O)O` [Compound 4, 2', 5'-dideoxyadenosine-3'-triphosphate], the IC50 in test [1] was 170 nM; in test [6] it was 120 nM; in test [2] (setting [8]) it was 40 nM; in test [2] (setting [9]), 40 nM.

`C[C@H]1O[C@@H](n2cnc3c(N)ncnc32)C[C@@H]1OP(=O)(O)OP(=O)(O)OP(=O)(O)OP(=O)(O)O` [Compound 5, 2', 5'-dideoxyadenosine-3'-tetraphosphate]: the IC50 in test [2] (setting [8]) worked out at 10 nM.

For `C[C@H]1O[C@@H](n2cnc3c(N)ncnc32)C[C@@H]1OP(O)(O)=S` [Compound 8, 2', 5'-dideoxyadenosine-3'-O-thiophosphate], the “inhibition … compared with adenosine” value in test [2] is listed as “inhibited adenylyl cyclase activity at concentrations considerably lower than that for adenosine”.

Take `Nc1ncnc2c1ncn2[C@H]1C[C@H](OP(=O)(O)OP(=O)(O)O)[C@@H](CO)O1` [Compound 11, 2'-deoxyadenosine-3'-diphosphate]: in test [2] (setting [8]), the IC50 is 140 nM.

`Nc1ncnc2c1ncn2[C@H]1C[C@H](OP(=O)(O)OP(=O)(O)OP(=O)(O)O)[C@@H](CO)O1` [Compound 12, 2'-deoxyadenosine-3'-triphosphate]: in test [2] (setting [8]), the IC50 is 90 nM.

For the compound `Nc1ncnc2c1ncn2[C@H]1C[C@H](OP(=O)(O)OP(=O)(O)OP(=O)(O)OP(=O)(O)O)[C@@H](CO)O1` [Compound 13, 2'-deoxyadenosine-3'-tetraphosphate], the IC50 in test [2] (setting [8]) is 13 nM.

Take `Nc1ncnc2c1ncn2[C@H]1C[C@H](OP(O)(O)=S)[C@@H](CO)O1` [Compound 16, 2'-deoxyadenosine-3'-O-thiophosphate]: the “inhibition … compared with adenosine” value in test [2] is given as “inhibited adenylyl cyclase activity at concentrations considerably lower than that for adenosine”.

As to `Nc1nc(F)nc2c1ncn2C1CCCC1` [Compound 19, 9-cyclopentyl-2-fluoro-9H-adenine], the “inhibition of the enzyme in intact cells and tissues” value in test [7] is “inhibit the enzyme in intact cells and tissues”. Also, in test [2], the “inhibition … compared with adenosine” value is given as “inhibited adenylyl cyclase activity at concentrations considerably lower than that for adenosine”.

Regarding `Nc1ncnc2c1ncn2[C@@H]1O[C@H](CO)[C@@H](OP(=O)(O)OP(=O)(O)O)[C@H]1O` [Compound 34, adenosine-3'-diphosphate], in test [2] (setting [8]), the IC50 stood at 3900 nM.

For the compound `Nc1ncnc2c1ncn2[C@@H]1O[C@H](CO)[C@@H](OP(=O)(O)OP(=O)(O)OP(=O)(O)O)[C@H]1O` [Compound 35, adenosine-3'-triphosphate], the concentration for half-maximal inhibition (IC50) in test [2] (setting [8]) amounted to 2000 nM.

`Nc1ncnc2c1ncn2[C@@H]1O[C@H](CO)[C@@H](O)[C@H]1O` [adenosine]: the IC50 in test [3] was 82000 nM.

For `Nc1cc[nH]c(=O)n1` [cytosine], the “inhibition of adenylyl cyclases via P-site” value in test [5] was “inactive”.

Take `Nc1ncnc2c1ncn2C[C@@H](O)[C@@H](O)C(=O)O` [eritadenine]: the IC50 in test [5] (setting [10]) was 6000 to 12000 nM.

Turning to `Nc1nc2c(ncn2[C@@H]2O[C@H](CO)[C@@H](O)[C@H]2O)c(=O)[nH]1` [guanosine], in test [5], the “inhibition of adenylyl cyclases via P-site” value is “inactive”.

For the compound `OC[C@H]1O[C@@H](n2cnc3c(O)ncnc32)[C@H](O)[C@@H]1O` [inosine], the “inhibition of adenylyl cyclases via P-site” value in test [5] was “inactive”.

Consider `Cc1cn([C@H]2C[C@H](O)[C@@H](CO)O2)c(=O)[nH]c1=O` [thymidine], for which the “inhibition of adenylyl cyclases via P-site” value in test [5] was “inactive”.

`O=c1ccn([C@@H]2O[C@H](CO)[C@@H](O)[C@H]2O)c(=O)[nH]1` [uridine]: the “inhibition of adenylyl cyclases via P-site” value in test [5] is “inactive”.

By IC50 is commonly meant the concentration at which inhibition is half-maximal.
